Measurements reported in patent US8658646B2, “Pyrrolopyrazine kinase inhibitors” (Hoffmann-LaRoche Inc., priority 2011, dated 2014).

Target: T1, recombinant human SYK360-635 (Homo sapiens, UniProt P43405)
T1 construct: made in house
Assay: Determination of IC50 of Spleen Tyrosine Kinase (SYK) inhibition, 33P ATP filtration assay
Assay type: biochemical
Settings: SYK aa 360-635 0.5 nM; ATP 20 μM, peptide 5 μM, 0.1% BSA; read-out: SYK_ENZYME_FILTRATION/v1, BSA

Row | SMILES | IC50 [nM]
1 | Cc1ccc2c(-c3cnc4[nH]cc(C(=O)NC(C)(C)CN(C)C)c4n3)n[nH]c2c1 [Example I-436, 2-(6-Methyl-1H-indazol-3-yl)-5H-pyrrolo[2,3-b]pyrazine-7-carboxylic acid (2-dimethylamino-1,1-dimethyl-ethyl)-amide] | 47.9
2 | CCC(C)(C)NC(=O)c1c[nH]c2ncc(-c3nn(C)c4cc(Cl)ccc34)nc12 [Example I-391, 2-(6-Chloro-1-methyl-1H-indazol-3-yl)-5H-pyrrolo[2,3-b]pyrazine-7-carboxylic acid (1,1-dimethyl-propyl)-amide] | 8.68
3 | CC(C)(C)NC(=O)c1c[nH]c2ncc(-c3nn(CC4CCNC4)c4ccc(OC(F)F)cc34)nc12 (stereo not drawn) [Example I-265, 2-(5-Difluoromethoxy-1-pyrrolidin-3-ylmethyl-1H-indazol-3-yl)-5H-pyrrolo[2,3-b]pyrazine-7-carboxylic acid tert-butylamide] | 8.62
4 | Cn1nc(-c2cnc3[nH]cc(C(=O)NC(C)(C)CN)c3n2)c2ccc(Cl)cc21 [Example I-397, 2-(6-Chloro-1-methyl-1H-indazol-3-yl)-5H-pyrrolo[2,3-b]pyrazine-7-carboxylic acid (2-amino-1,1-dimethyl-ethyl)-amide] | 219
5 | CC(C)(C)NC(=O)c1c[nH]c2ncc(-c3nn(CC4CN(Cc5ccccc5)CCO4)c4ccc(OC(F)F)cc34)nc12 (stereo not drawn) [Example I-340, 2-[1-(4-Benzyl-morpholin-2-ylmethyl)-5-difluoromethoxy-1H-indazol-3-yl]-5H-pyrrolo[2,3-b]pyrazine-7-carboxylic acid tert-butylamide] | 295
6 | COc1ccc2c(c1)c(-c1cnc3[nH]cc(C(=O)N[C@@H]4CCCC[C@@H]4N)c3n1)nn2C [Example I-291, 2-(5-Methoxy-1-methyl-1H-indazol-3-yl)-5H-pyrrolo[2,3-b]pyrazine-7-carboxylic acid ((1R,2S)-2-amino-cyclohexyl)-amide] | 1000
7 | Cn1nc(-c2cnc3[nH]cc(C(=O)NC4(C)CC4)c3n2)c2ccc(Cl)cc21 [Example I-395, 2-(6-Chloro-1-methyl-1H-indazol-3-yl)-5H-pyrrolo[2,3-b]pyrazine-7-carboxylic acid (1-methyl-cyclopropyl)-amide] | 2.27
8 | Cn1nc(-c2cnc3[nH]cc(C(=O)NC(C)(C)CO)c3n2)c2ccc(OC(F)(F)F)cc21 [Example I-371, 2-(1-Methyl-6-trifluoromethoxy-1H-indazol-3-yl)-5H-pyrrolo[2,3-b]pyrazine-7-carboxylic acid (2-hydroxy-1,1-dimethyl-ethyl)-amide] | 23.1
9 | CC(C)(C)NC(=O)c1c[nH]c2ncc(-c3nn(CCCN4CCC(F)(F)C4)c4ccc(OC(F)F)cc34)nc12 [Example I-343, 2-{5-Difluoromethoxy-1-[3-(3,3-difluoro-pyrrolidin-1-yl)-propyl]-1H-indazol-3-yl}-5H-pyrrolo[2,3-b]pyrazine-7-carboxylic acid tert-butylamide] | 37
10 | Cc1ccc2c(-c3cnc4[nH]cc(C(=O)NC(C)(C)CO)c4n3)n[nH]c2c1 [Example I-434, 2-(6-Methyl-1H-indazol-3-yl)-5H-pyrrolo[2,3-b]pyrazine-7-carboxylic acid (2-hydroxy-1,1-dimethyl-ethyl)-amide] | 4.6
11 | CC(C)(C)NC(=O)c1c[nH]c2ncc(-n3nc(C(F)(F)F)c4c3CCC4)nc12 [Example I-334, 2-(3-Trifluoromethyl-5,6-dihydro-4H-cyclopentapyrazol-1-yl)-5H-pyrrolo[2,3-b]pyrazine-7-carboxylic acid tert-butylamide] | 1840
12 | Cc1cc2cccc(-c3cnc4[nH]cc(C(=O)NC(C)(C)C)c4n3)c2[nH]1 [Example I-303, 2-(2-Methyl-1H-indol-7-yl)-5H-pyrrolo[2,3-b]pyrazine-7-carboxylic acid tert-butylamide] | 64.1
13 | C#CC(C)(C)NC(=O)c1c[nH]c2ncc(-c3nn(C)c4cc(F)ccc34)nc12 [Example I-380, 2-(6-Fluoro-1-methyl-1H-indazol-3-yl)-5H-pyrrolo[2,3-b]pyrazine-7-carboxylic acid (1,1-dimethyl-prop-2-ynyl)-amide] | 9.95
14 | Cn1nc(-c2cnc3[nH]cc(C(=O)NC4(C)CCCC4)c3n2)c2ccc(F)cc21 [Example I-384, 2-(6-Fluoro-1-methyl-1H-indazol-3-yl)-5H-pyrrolo[2,3-b]pyrazine-7-carboxylic acid (1-methyl-cyclopentyl)-amide] | 3.75
15 | NC(=O)c1c[nH]c2ncc(-c3nn(CC(=O)N4CCOCC4)c4cc(F)ccc34)nc12 [Example I-314, 2-[6-Fluoro-1-(2-morpholin-4-yl-2-oxo-ethyl)-1H-indazol-3-yl]-5H-pyrrolo[2,3-b]pyrazine-7-carboxylic acid amide] | 155
16 | NC1CCC(NC(=O)c2c[nH]c3ncc(-c4nn(C5CCNCC5)c5cc(F)ccc45)nc23)C1 (stereo not drawn) [Example I-267, 2-(6-Fluoro-1-piperidin-4-yl-1H-indazol-3-yl)-5H-pyrrolo[2,3-b]pyrazine-7-carboxylic acid (3-amino-cyclopentyl)-amide] | 30.3
17 | Cn1nc(-c2cnc3[nH]cc(C(=O)NC(C)(C)CCN)c3n2)c2ccc(F)cc21 [Example I-415, 2-(6-Fluoro-1-methyl-1H-indazol-3-yl)-5H-pyrrolo[2,3-b]pyrazine-7-carboxylic acid (3-amino-1,1-dimethyl-propyl)-amide] | 322

Row | SMILES | IC50 [nM]
18 | CC(C)(C)NC(=O)c1c[nH]c2ncc(-n3ncc4cc(F)c(F)cc43)nc12 [Example I-327, 2-(5,6-Difluoro-indazol-1-yl)-5H-pyrrolo[2,3-b]pyrazine-7-carboxylic acid tert-butylamide] | 221
19 | CC(C)(C)NC(=O)c1c[nH]c2ncc(-n3ncc4cc(OC(F)F)ccc43)nc12 [Example I-325, 2-(5-Difluoromethoxy-indazol-1-yl)-5H-pyrrolo[2,3-b]pyrazine-7-carboxylic acid tert-butylamide] | 37.6
20 | Cc1ccc2c(-c3cnc4[nH]cc(C(=O)NC(C)(C)CO)c4n3)nn(CCCN3CCOCC3)c2c1 [Example I-438, 2-[6-Methyl-1-(3-morpholin-4-yl-propyl)-1H-indazol-3-yl]-5H-pyrrolo[2,3-b]pyrazine-7-carboxylic acid (2-hydroxy-1,1-dimethyl-ethyl)-amide] | 27.4
21 | Cn1nc(-c2cnc3[nH]cc(C(=O)NC(C)(C)C)c3n2)c2ccc(S(C)(=O)=O)cc21 [Example I-270, 2-(6-Methanesulfonyl-1-methyl-1H-indazol-3-yl)-5H-pyrrolo[2,3-b]pyrazine-7-carboxylic acid tert-butylamide] | 16.4
22 | Cc1ccc2c(-c3cnc4[nH]cc(C(=O)NC(C)(C)C5CC5)c4n3)n[nH]c2c1 [Example I-433, 2-(6-Methyl-1H-indazol-3-yl)-5H-pyrrolo[2,3-b]pyrazine-7-carboxylic acid (1-cyclopropyl-1-methyl-ethyl)-amide] | 8.55
23 | Cc1ccc2c(-c3cnc4[nH]cc(C(=O)NC(C)(C)CN)c4n3)n[nH]c2c1 [Example I-435, 2-(6-Methyl-1H-indazol-3-yl)-5H-pyrrolo[2,3-b]pyrazine-7-carboxylic acid (2-amino-1,1-dimethyl-ethyl)-amide] | 16.7
24 | C[C@H](NC(=O)c1c[nH]c2ncc(-c3nn(C)c4cc(F)ccc34)nc12)c1ncc(C(F)(F)F)[nH]1 [Example I-358, 2-(6-Fluoro-1-methyl-1H-indazol-3-yl)-5H-pyrrolo[2,3-b]pyrazine-7-carboxylic acid [(S)-1-(5-trifluoromethyl-1H-imidazol-2-yl)-ethyl]-amide] | 107
25 | COc1ccc2c(c1)c(-c1cnc3[nH]cc(C(=O)N[C@@H]4CCOC[C@@H]4N)c3n1)nn2C [Example I-290, 2-(5-Methoxy-1-methyl-1H-indazol-3-yl)-5H-pyrrolo[2,3-b]pyrazine-7-carboxylic acid ((3R,4R)-3-amino-tetrahydro-pyran-4-yl)-amide] | 2130
26 | CC(C)(CO)NC(=O)c1c[nH]c2ncc(-n3ncc4cc(Cl)ccc43)nc12 [Example I-318, 2-(5-Chloro-indazol-1-yl)-5H-pyrrolo[2,3-b]pyrazine-7-carboxylic acid (2-hydroxy-1,1-dimethyl-ethyl)-amide] | 56.8
27 | Cc1ccc2c(-c3cnc4[nH]cc(C(=O)NC5(C#N)CC5)c4n3)n[nH]c2c1 [Example I-437, 2-(6-Methyl-1H-indazol-3-yl)-5H-pyrrolo[2,3-b]pyrazine-7-carboxylic acid (1-cyano-cyclopropyl)-amide] | 3.95
28 | CC(C)(C)NC(=O)c1c[nH]c2ncc(-c3cccc4cc[nH]c34)nc12 [Example I-304, 2-(1H-Indol-7-yl)-5H-pyrrolo[2,3-b]pyrazine-7-carboxylic acid tert-butylamide] | 7.35
29 | CC(C)(CO)NC(=O)c1c[nH]c2ncc(-c3n[nH]c4cc(Cl)ccc34)nc12 [Example I-414, 2-(6-Chloro-1H-indazol-3-yl)-5H-pyrrolo[2,3-b]pyrazine-7-carboxylic acid (2-hydroxy-1,1-dimethyl-ethyl)-amide] | 5.25
30 | CC(C)NC(=O)c1c[nH]c2ncc(-c3c4c(n(C)[n+]3[O-])CCCC4)nc12 [Example I-293, 2-(1-Methyl-2-oxy-4,5,6,7-tetrahydro-1H-indazol-3-yl)-5H-pyrrolo[2,3-b]pyrazine-7-carboxylic acid isopropylamide] | 2710
31 | CC(C)(C)NC(=O)c1c[nH]c2ncc(-n3ncc4ccc(Cl)cc43)nc12 [Example I-329, 2-(6-Chloro-indazol-1-yl)-5H-pyrrolo[2,3-b]pyrazine-7-carboxylic acid tert-butylamide] | 82.2
32 | Cn1nc(-c2cnc3[nH]cc(C(=O)NC(C)(C)C)c3n2)c2ccc(C#N)cc21 [Example I-394, 2-(6-Cyano-1-methyl-1H-indazol-3-yl)-5H-pyrrolo[2,3-b]pyrazine-7-carboxylic acid tert-butylamide] | 4.38
33 | CC(C)(C)NC(=O)c1c[nH]c2ncc(-c3nn(CCC4CNC4)c4cc(F)ccc34)nc12 [Example I-302, 2-[1-(2-Azetidin-3-yl-ethyl)-6-fluoro-1H-indazol-3-yl]-5H-pyrrolo[2,3-b]pyrazine-7-carboxylic acid tert-butylamide] | 8.5
